Calls of active or inactive are those of the source. No cut-off for these calls is given here.
Columns and labels:
[1] = target: Protein kinase C beta type (Homo sapiens) (UniProt P05771); test: PKCbetaI Invitrogen kinase panel; settings: Compound concentration 10.0 uM
[2] = target: Aurora kinase B (Homo sapiens) (UniProt Q96GD4); test: Aurora_B Invitrogen kinase panel; settings: Compound concentration 10.0 uM
[3] = target: T1, CAR (nuclear receptor subfamily 1 group I member 3) (Homo sapiens, UniProt Q14994); test: (§1) CAR In-house nuclear receptor screen; settings: human; compound concentration 3 uM
T1 sequence (Q14994 whole entry): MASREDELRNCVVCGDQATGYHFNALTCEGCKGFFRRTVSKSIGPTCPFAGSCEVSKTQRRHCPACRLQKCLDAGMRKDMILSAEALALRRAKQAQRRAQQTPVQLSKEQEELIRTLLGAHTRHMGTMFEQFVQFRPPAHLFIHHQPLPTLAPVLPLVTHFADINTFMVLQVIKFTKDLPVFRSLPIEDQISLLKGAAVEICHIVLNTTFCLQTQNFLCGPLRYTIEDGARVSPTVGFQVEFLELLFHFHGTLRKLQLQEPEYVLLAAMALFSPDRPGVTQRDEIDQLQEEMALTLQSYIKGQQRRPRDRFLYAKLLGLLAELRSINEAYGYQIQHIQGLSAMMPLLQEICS

[4] = target: Nuclear receptor subfamily 1 group I member 3 (Homo sapiens, UniProt Q14994); test: as §1
[5] = target: Serine/threonine-protein kinase PAK 4 (Homo sapiens) (UniProt O96013); test: PAK4 Invitrogen kinase panel; settings: Compound concentration 10.0 uM
[6] = target: Thyroid hormone receptor alpha (Homo sapiens) (UniProt P10827); test: TRalpha Indigo Bioscience nuclear receptor screen; settings: Compound concentration 0.3 uM
[7] = target: Serine/threonine-protein kinase PLK3 (Homo sapiens) (UniProt Q9H4B4); test: Plk3 Invitrogen kinase panel; settings: Compound concentration 10.0 uM
[8] = target: D(3) dopamine receptor (Homo sapiens) (UniProt P35462); settings: Compound concentration 10.0 uM
[9] = target: Mitogen-activated protein kinase 13 (Homo sapiens) (UniProt O15264); test: p38delta Invitrogen kinase panel; settings: Compound concentration 10.0 uM
[10] = target: D(1B) dopamine receptor (Homo sapiens) (UniProt P21918); settings: Compound concentration 10.0 uM
[11] = target: D(4) dopamine receptor (Homo sapiens) (UniProt P21917); settings: Compound concentration 10.0 uM
[12] = target: Sodium-dependent noradrenaline transporter (Homo sapiens) (UniProt P23975); test: norepinephrine transporter (h) CEREP screen
[13] = target: T2, Sigma non-opioid intracellular receptor 1 (Homo sapiens, UniProt Q99720); settings: Compound concentration 10.0 uM
[14] = target: T3, Estrogen receptor (Homo sapiens) (UniProt P03372); test: ERalpha Indigo Bioscience nuclear receptor screen
T3 sequence (whole entry): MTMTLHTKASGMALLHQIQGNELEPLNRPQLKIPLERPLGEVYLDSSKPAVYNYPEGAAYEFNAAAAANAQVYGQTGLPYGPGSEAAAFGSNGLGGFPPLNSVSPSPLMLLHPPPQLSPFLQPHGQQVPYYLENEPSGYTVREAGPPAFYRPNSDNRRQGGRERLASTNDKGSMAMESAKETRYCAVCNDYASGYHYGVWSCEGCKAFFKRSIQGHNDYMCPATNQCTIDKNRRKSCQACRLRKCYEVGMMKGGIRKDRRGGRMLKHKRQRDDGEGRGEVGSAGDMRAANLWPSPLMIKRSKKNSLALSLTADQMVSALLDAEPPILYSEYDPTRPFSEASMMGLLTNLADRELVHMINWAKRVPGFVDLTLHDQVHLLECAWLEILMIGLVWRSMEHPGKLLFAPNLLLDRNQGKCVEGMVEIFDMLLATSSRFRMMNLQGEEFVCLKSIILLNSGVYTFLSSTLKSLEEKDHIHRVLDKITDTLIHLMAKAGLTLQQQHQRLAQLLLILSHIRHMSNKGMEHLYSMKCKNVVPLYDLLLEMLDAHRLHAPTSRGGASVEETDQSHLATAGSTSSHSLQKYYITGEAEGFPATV

[15] = target: Dual specificity protein kinase CLK2 (Homo sapiens) (UniProt P49760); test: CLK2 Invitrogen kinase panel; settings: Compound concentration 10.0 uM
[16] = target: voltage-dependent K+ channel (Homo sapiens, UniProt O43525+O43526+O95259+P16389+P17658+P22001+P22459+P22460+P48547+P51787+P56696+Q03721+Q09470+Q12809+Q14003+Q14721+Q16322+Q6PIU1+Q8NCM2+Q8TAE7+Q8TDN1+Q8TDN2+Q92953+Q96KK3+Q96L42+Q96PR1+Q96RP8+Q9BQ31+Q9H252+Q9H3M0+Q9NR82+Q9NS40+Q9NSA2+Q9NZV8+Q9UIX4+Q9UJ96+Q9UK17+Q9ULD8+Q9ULS6+Q9UQ05); test: K+ channel (Volt-dependent) CEREP screen; type: protein assay; settings: compound concentration 10 uM
[17] = target: Kappa-type opioid receptor (Homo sapiens) (UniProt P41145); settings: Compound concentration 10.0 uM
[18] = target: Inhibitor of nuclear factor kappa-B kinase subunit beta (Homo sapiens) (UniProt O14920); test: IKKbeta Invitrogen kinase panel; settings: Compound concentration 10.0 uM
[19] = target: T2, Sigma non-opioid intracellular receptor 1; test: GPCRScan assay: inhibition of Sigma 1; design: radioligand conc. used [nm] 4.0 – 5.0, parental cells HEKT
[20] = target: T4, Peroxisome proliferator-activated receptor delta (Homo sapiens) (UniProt Q03181); test: (§2) PPARdelta In-house nuclear receptor screen; settings: Compound concentration 3.0 uM
T4 sequence (whole entry): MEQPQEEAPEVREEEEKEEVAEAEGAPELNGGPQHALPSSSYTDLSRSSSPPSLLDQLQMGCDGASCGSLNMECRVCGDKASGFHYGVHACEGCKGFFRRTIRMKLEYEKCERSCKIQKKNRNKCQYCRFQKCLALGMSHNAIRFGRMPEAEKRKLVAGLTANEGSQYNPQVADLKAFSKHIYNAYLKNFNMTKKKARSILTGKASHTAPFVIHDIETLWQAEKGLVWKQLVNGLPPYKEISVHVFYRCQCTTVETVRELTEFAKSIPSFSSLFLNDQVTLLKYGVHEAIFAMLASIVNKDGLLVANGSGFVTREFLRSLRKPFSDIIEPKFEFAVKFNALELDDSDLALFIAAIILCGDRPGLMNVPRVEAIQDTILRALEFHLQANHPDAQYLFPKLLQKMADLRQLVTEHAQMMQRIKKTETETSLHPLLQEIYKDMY

[21] = target: Peroxisome proliferator-activated receptor delta (Homo sapiens, UniProt Q03181); test: as §2
[22] = target: Alpha-2C adrenergic receptor (Homo sapiens) (UniProt P18825); settings: Compound concentration 10.0 uM
[23] = target: Sigma intracellular receptor 2 (Homo sapiens, UniProt Q5BJF2); test: GPCRScan assay: inhibition of Sigma 2; design: radioligand conc. used [nm] 5.0, parental cells HEKT
[24] = target: Nuclear receptor ROR-gamma (Homo sapiens, UniProt P51449); test: Human whole blood assay; type: tissue-based; design: compound concentration 10 uM
Nuclear receptor ROR-gamma, sequence (P51449 whole entry): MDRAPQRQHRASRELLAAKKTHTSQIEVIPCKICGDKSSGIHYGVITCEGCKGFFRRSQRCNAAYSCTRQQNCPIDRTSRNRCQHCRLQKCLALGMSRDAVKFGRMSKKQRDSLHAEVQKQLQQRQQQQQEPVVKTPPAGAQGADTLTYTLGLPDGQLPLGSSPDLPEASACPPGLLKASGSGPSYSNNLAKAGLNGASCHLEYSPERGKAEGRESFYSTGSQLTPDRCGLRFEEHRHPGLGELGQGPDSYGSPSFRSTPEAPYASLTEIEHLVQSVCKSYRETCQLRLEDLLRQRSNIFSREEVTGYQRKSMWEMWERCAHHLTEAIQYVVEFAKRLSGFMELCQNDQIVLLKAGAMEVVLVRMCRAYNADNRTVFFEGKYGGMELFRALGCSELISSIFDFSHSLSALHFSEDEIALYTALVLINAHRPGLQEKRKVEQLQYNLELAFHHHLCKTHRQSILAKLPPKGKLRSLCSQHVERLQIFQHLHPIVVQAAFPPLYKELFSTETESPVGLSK

T2 sequence (Q99720 whole entry): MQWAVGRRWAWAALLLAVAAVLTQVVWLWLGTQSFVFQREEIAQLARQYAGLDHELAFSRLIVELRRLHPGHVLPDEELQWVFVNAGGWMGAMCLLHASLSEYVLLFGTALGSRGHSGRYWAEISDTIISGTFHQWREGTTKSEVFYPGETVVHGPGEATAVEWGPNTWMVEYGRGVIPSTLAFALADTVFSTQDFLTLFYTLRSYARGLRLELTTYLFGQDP
Sigma intracellular receptor 2, sequence (Q5BJF2 whole entry): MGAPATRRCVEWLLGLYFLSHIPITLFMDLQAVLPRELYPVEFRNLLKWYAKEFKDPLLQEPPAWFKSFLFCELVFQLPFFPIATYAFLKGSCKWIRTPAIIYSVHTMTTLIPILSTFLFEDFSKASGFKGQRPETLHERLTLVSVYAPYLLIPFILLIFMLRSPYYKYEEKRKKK
Sodium-dependent noradrenaline transporter (Homo sapiens), sequence (P23975 whole entry): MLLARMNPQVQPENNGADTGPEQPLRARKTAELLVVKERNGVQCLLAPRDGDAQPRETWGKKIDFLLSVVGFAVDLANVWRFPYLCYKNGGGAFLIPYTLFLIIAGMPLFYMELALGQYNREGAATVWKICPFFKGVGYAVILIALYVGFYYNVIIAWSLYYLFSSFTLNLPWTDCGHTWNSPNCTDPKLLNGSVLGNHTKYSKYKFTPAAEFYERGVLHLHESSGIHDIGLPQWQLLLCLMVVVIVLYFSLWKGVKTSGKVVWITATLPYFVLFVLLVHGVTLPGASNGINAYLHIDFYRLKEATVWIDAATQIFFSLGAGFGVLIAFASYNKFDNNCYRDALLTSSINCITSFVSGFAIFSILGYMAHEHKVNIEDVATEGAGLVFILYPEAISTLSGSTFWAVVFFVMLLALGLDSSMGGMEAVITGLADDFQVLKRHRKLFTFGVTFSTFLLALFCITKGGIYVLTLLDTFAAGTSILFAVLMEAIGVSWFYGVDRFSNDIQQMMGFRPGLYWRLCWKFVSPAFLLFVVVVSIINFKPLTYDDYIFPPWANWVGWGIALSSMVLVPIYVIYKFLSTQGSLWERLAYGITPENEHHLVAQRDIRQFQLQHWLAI
Inhibitor of nuclear factor kappa-B kinase subunit beta (Homo sapiens), sequence (O14920 whole entry): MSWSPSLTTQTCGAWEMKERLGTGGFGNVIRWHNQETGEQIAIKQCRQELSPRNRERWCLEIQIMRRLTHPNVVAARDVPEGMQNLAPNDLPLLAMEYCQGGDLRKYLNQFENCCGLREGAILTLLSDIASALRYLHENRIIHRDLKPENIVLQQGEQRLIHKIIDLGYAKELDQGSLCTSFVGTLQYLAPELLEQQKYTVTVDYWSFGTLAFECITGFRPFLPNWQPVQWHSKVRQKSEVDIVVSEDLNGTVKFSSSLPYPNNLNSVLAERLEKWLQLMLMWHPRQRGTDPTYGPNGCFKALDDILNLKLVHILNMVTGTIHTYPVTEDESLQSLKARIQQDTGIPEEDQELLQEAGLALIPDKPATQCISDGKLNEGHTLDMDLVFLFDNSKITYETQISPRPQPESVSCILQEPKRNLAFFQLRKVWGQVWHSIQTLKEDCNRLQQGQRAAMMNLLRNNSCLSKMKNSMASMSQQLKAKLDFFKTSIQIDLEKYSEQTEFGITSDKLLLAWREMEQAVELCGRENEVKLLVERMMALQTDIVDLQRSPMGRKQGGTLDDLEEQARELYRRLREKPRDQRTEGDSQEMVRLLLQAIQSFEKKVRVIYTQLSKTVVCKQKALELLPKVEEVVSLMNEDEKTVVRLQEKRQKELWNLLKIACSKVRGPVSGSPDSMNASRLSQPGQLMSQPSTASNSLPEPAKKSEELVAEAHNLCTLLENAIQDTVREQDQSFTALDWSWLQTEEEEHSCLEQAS
Mitogen-activated protein kinase 13 (Homo sapiens), sequence (O15264 whole entry): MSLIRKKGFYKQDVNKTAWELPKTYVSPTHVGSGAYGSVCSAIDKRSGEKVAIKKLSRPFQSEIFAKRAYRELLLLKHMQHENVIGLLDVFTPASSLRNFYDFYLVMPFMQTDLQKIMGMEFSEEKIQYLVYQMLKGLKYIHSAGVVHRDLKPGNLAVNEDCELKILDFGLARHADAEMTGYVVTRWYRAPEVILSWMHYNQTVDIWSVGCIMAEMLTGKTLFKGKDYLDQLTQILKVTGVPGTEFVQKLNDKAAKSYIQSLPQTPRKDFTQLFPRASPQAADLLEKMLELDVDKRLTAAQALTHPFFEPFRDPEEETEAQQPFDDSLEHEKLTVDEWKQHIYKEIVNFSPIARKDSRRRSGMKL
D(4) dopamine receptor (Homo sapiens), sequence (P21917 whole entry): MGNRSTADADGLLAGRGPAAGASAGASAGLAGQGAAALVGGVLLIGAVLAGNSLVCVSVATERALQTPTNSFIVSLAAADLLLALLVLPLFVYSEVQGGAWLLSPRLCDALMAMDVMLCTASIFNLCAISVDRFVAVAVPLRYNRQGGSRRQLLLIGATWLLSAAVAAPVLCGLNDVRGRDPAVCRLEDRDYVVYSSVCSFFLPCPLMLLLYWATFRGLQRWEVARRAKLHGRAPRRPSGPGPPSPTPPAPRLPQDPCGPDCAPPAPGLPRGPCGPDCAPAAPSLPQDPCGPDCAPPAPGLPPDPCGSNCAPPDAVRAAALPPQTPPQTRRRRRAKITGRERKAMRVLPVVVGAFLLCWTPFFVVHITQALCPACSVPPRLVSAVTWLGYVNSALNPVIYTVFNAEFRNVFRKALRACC
Aurora kinase B (Homo sapiens), sequence (Q96GD4 whole entry): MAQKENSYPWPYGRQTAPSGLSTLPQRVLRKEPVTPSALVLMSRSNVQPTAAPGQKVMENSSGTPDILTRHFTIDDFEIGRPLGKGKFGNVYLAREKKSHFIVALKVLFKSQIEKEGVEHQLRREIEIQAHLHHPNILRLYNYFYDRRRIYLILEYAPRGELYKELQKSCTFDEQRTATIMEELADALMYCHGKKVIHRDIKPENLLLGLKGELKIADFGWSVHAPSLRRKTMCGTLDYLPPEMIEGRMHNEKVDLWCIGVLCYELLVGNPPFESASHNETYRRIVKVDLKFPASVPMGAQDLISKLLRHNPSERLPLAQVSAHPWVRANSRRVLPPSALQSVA
Serine/threonine-protein kinase PLK3 (Homo sapiens), sequence (Q9H4B4 whole entry, looked up): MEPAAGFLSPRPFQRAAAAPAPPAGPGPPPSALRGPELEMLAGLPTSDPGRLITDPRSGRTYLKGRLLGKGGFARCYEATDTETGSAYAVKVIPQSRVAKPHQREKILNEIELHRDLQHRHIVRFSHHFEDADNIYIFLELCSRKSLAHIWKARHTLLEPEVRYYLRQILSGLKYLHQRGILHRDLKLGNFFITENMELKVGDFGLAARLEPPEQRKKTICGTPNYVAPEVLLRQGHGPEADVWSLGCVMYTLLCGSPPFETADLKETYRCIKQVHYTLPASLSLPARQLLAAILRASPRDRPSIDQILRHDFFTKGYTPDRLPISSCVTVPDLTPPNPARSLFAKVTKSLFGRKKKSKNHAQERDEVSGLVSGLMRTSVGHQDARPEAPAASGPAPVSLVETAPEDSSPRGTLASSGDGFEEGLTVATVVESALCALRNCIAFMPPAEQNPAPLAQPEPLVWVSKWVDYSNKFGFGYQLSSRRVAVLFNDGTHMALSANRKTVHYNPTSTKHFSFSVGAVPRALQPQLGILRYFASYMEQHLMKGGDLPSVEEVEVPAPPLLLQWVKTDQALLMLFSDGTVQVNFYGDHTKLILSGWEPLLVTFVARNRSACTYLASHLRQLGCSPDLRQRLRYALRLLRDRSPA
Kappa-type opioid receptor (Homo sapiens), sequence (P41145 whole entry): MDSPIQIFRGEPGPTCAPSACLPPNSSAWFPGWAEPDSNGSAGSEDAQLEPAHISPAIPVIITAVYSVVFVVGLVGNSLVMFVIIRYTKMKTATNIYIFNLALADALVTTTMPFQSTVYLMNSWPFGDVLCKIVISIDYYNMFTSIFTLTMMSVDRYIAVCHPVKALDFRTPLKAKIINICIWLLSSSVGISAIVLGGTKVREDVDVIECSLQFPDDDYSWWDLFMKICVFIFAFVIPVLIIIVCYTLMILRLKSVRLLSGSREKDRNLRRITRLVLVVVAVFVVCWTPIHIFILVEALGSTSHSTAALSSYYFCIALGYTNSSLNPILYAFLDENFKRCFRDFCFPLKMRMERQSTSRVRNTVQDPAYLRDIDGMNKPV
Alpha-2C adrenergic receptor (Homo sapiens), sequence (P18825 whole entry): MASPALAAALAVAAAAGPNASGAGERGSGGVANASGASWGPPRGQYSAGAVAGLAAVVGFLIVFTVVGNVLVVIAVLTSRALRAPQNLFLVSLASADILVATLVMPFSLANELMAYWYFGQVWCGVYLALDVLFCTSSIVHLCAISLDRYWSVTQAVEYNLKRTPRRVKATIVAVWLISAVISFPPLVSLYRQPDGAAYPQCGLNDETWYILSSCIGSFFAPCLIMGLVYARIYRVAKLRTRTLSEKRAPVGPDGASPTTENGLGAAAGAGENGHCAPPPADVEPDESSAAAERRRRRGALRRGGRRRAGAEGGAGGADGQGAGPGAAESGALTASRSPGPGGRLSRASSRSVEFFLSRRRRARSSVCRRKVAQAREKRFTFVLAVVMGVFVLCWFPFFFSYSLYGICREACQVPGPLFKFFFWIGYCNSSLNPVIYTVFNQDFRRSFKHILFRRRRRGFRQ

`COc1nc2ccc([C@@](O)(c3ccccc3)C3CCN(C(C)=O)CC3)cc2c(Cl)c1Cc1ccc(-n2cccn2)cc1` [JNJ-54119936] was tested, and the inhibition [1] was 1%, the inhibition [2] was 21% and the inhibition at 3 µM [3] was 31.2% (not active). The IC50 [4] was 8.4 µM, the inhibition [5] was 4% and the inhibition [6] was -5.63%. The inhibition [7] was 3%, the inhibition [8] was -2.36% and the inhibition [9] was 14%. It also gave an inhibition [10] of 33.9%, an inhibition [11] of -5.45% and an inhibition ([12]; Compound concentration 1.0 uM) of 34%. It also gave an inhibition ([12]; Compound concentration 10.0 uM) of 16%, an inhibition [13] of 102% and an inhibition ([14]; Compound concentration 0.3 uM) of -1.2%. For the same molecule, the inhibition ([14]; Compound concentration 1.0 uM) was 0.61%, the inhibition ([14]; Compound concentration 3.0 uM) was -3.01% and the inhibition [15] was 4%. The inhibition at 10 µM [16] was 15% (not active), the inhibition [17] was -6% and the inhibition [18] was 6%. It also gave a Ki ([19]; read-out: Ki) of 3.13 µM, a Ki ([19]; read-out: pKi (converted)) of 3.02 µM and an inhibition [20] of 37.3%. The IC50 [21] was 5.9 µM, the inhibition [22] was 39.8% and the Ki ([23]; read-out: Ki) was 0.637 µM. For the same molecule, the Ki ([23]; read-out: pKi (converted)) was 0.603 µM and the IC50 [24] was 0.332 µM (active).

Reference: ChEMBL document CHEMBL4800728, “Data for DCP probe JNJ-54119936” (2021)
